Measured values: ChEMBL document CHEMBL1154010, “Aziridine alkaloids as potential therapeutic agents” (Eur J Med Chem, 2009)
≈ marks a conversion by molar mass, not a printed value.

Legend:
HCT-116 = test: Cytotoxicity against human HCT116 cells; type: functional, cell-based
CCRF S-180 [1] = test: Antitumor activity against mouse S180 cells implanted in ip dosed ddY mouse assessed as tumor volume after 7 days; type: functional
[2] = Antitumor activity against mouse mammary cancer cell implanted in C3H/An mouse assessed as inhibition of tumor growth at 0.5 mg/day for 14 days; type: functional, Cancer cell lines
LoVo = test: Cytotoxicity against human LoVo cells; type: functional, cell-based
[3] = target: Fumarate hydratase, mitochondrial (Sus scrofa, UniProt P10173); test: Inhibition of pig heart fumarase
Aspartase = Aspartase (Escherichia coli, UniProt Q59388); test: Inhibition of Escherichia coli aspartase
L5178Y = test: Cytotoxicity against mouse L5178Y cells; type: functional, cell-based
CCRF S-180 [4] = test: Antitumor activity against mouse S180 cells xenografted in rat; type: functional
[5] = Antitumor activity against mouse EAC cells xenografted in rat; type: functional, Ehrlich
Mus musculus = test: Toxicity in ip dosed ddY mouse bearing mouse S180 cells; type: organism-based, CCRF S-180; settings: in vivo
[6] = target: Procathepsin L (Homo sapiens) (UniProt P07711); test: Inhibition of cathepsin L
Cathepsin B = Cathepsin B (Homo sapiens, UniProt P07858); test: Inhibition of cathepsin B
[7] = Inhibition of trypsin
[8] = Inhibition of Pepsin

Sequence of Fumarate hydratase, mitochondrial (P10173 whole entry): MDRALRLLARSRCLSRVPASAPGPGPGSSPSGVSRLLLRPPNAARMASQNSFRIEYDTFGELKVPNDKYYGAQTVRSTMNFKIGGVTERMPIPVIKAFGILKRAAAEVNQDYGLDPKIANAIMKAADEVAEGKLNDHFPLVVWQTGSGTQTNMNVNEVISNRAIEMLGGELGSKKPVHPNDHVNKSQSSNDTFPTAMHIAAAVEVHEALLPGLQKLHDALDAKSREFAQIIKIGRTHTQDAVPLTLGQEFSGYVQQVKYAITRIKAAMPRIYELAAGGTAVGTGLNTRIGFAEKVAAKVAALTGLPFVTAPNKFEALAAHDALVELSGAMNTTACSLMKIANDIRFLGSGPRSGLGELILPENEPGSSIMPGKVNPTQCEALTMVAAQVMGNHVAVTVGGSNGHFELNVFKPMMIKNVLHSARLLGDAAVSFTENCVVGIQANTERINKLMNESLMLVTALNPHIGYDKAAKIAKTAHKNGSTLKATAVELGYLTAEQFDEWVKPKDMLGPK
Sequence of Procathepsin L (Homo sapiens) (P07711 114-333 limits assumed): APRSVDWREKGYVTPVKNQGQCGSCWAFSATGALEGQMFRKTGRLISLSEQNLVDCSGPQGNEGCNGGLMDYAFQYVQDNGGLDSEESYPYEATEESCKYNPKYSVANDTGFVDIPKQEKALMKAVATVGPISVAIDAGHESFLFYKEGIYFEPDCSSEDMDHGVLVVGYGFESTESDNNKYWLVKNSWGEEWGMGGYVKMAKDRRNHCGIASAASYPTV
Sequence of Aspartase (Q59388 whole entry): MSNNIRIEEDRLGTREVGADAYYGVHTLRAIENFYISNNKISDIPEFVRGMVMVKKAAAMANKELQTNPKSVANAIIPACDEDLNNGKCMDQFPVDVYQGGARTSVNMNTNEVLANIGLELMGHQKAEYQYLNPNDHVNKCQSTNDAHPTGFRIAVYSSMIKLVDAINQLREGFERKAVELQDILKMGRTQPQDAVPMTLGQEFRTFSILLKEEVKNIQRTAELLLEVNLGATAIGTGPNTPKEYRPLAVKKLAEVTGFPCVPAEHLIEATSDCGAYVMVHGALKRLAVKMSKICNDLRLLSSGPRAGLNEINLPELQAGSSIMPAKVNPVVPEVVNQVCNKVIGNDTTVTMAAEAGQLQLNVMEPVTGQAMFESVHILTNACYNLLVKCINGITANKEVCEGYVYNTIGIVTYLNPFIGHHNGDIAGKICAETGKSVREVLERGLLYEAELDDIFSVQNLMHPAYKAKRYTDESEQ

## COC(=O)[C@H]1N=C1/C=C/CCCCCCCCCC=C(Br)Br
HCT-116
  IC50: 19.6 µM

## CO[C@@]12[C@H](COC(N)=O)C3=C(C(=O)C(C)=C(N)C3=O)N1C[C@@H]1N[C@@H]12 [MITOMYCIN]
CCRF S-180 [1]
  ED50: 4.4 µg/mL (≈ 13.2 µM)

## CC(=O)[C@H]1C(N2CC2)C[C@H]2[C@@H]3CCC4=CC(=O)CC[C@]4(C)[C@H]3CC[C@]12C (stereo partly specified)
[2]
  inhibition (INH): 55%

## CC(=O)[C@]1(O)Cc2c(O)c3c(c(O)c2[C@@H](OC2C[C@H](N4CC4)[C@H](OS(C)(=O)=O)[C@H](C)O2)C1)C(=O)c1ccccc1C3=O (stereo partly specified)
LoVo
  IC50: 0.0027 µg/mL (≈ 0.00449 µM)

## O=C(O)[C@H]1N[C@@H]1C(=O)O
[3]
  Ki: 0.08 µM
Aspartase
  Ki: 55 µM

## Nc1nc(=O)c2c(CNC(=O)N3CC3)c[nH]c2[nH]1
L5178Y
  IC50: 9 µg/mL

## CC1(C)CC(C(=O)ONP(=O)(N2CC2)N2CC2)CC(C)(C)N1O
CCRF S-180 [4]
  Activity: 93%
[5]
  Activity: 90%

## C=C1C2=C(C(=O)C(C)=C(N)C2=O)N2C[C@H]3[C@H](N3C)[C@]12OC (stereo partly specified) [MITOMYCIN K]
Mus musculus
  LD50: 22 µg/mL
CCRF S-180 [1]
  ED50: 35 µg/mL (≈ 122 µM)

## CC(=O)O[C@H]1C(=O)[C@@]2(C)C([C@H](OC(=O)c3ccccc3)[C@]3(O)C[C@H](OC(=O)[C@@H](O)[C@H](CC(=O)OC(C)(C)C)c4ccco4)C(C)=C1C3(C)C)[C@]1(OC(=O)N3CC3)CO[C@@H]1C[C@@H]2O (stereo partly specified)
HCT-116
  IC50: 0.002 µM

## COC(=O)[C@H]1N=C1/C=C/CCCCCCCCCC=C(Cl)Cl
HCT-116
  IC50: 24.8 µM

## C=C1C2=C(C(=O)C(C)=C(OC)C2=O)N2C[C@H]3[C@H](N3C)[C@]12OC (stereo partly specified) [MITOMYCIN G]
Mus musculus
  LD50: 130 µg/mL
CCRF S-180 [1]
  ED50: 100 µg/mL (≈ 331 µM)

## CC(=O)O[C@H]1C(=O)[C@@]2(C)C([C@H](OC(=O)c3ccccc3)[C@]3(O)C[C@H](OC(=O)[C@@H](O)[C@H](NC(=O)c4ccccc4)c4ccccc4)C(C)=C1C3(C)C)[C@]1(OC(=O)N3CC3)CO[C@@H]1C[C@@H]2O (stereo partly specified)
HCT-116
  IC50: 0.0156 µM

## CC1(C)CC(CCC(=O)ONP(=O)(N2CC2)N2CC2)CC(C)(C)N1O
CCRF S-180 [4]
  Activity: 93%
[5]
  Activity: 90%

## CCCCCCCCCCCCC/C=C/C1=N[C@@H]1C(=O)OC
HCT-116
  IC50: 18.2 µM

## CC(=O)O[C@H]1C(=O)[C@@]2(C)C([C@H](OC(=O)c3ccccc3)[C@]3(O)C[C@H](OC(=O)[C@@H](O)[C@H](CC(=O)c4ccccc4)c4ccco4)C(C)=C1C3(C)C)[C@]1(OC(=O)N3CC3)CO[C@@H]1C[C@@H]2O (stereo partly specified)
HCT-116
  IC50: 0.0069 µM

## COC1=C(C)C(=O)C2=C(C1=O)[C@H](COC(N)=O)[C@@]1(O)[C@@H]3[C@H](CN21)N3C (stereo partly specified) [MITOMYCIN B]
Mus musculus
  LD50: 4.5 µg/mL
CCRF S-180 [1]
  ED50: 2.5 µg/mL (≈ 7.16 µM)

## CC[C@H](NC(=O)C[C@H](O)[C@H](CC(C)C)NC(=O)[C@H](CC(C)C)NC(=O)[C@@H]1N[C@H]1C(=O)O)C(=O)N[C@H](/C=C/C(=O)O)CCCN=C(N)N [MIRAZIRIDINE A]
[6]
  INH: 1 ×10⁶ /M/s
Cathepsin B
  IC50: 2.09 µM
  INH: 1.5 ×10⁴ /M/s
[7]
  INH: 6 ×10⁻⁵ M
[8]
  INH: 1.4 ×10⁻⁸ M

## COC1=C(C)C(=O)C2=C(C1=O)[C@@H](COC(N)=O)[C@@]1(O)[C@H]3N[C@H]3CN21 [9A-DEMETHYLMITOMYCIN A]
Mus musculus
  LD50: 7.5 µg/mL
CCRF S-180 [1]
  ED50: 4.9 µg/mL (≈ 14.6 µM)

## CC(=O)[C@H]1C(N2CC2)C[C@H]2[C@@H]3CC=C4C[C@@H](O)CC[C@]4(C)[C@H]3CC[C@]12C (stereo partly specified)
[2]
  inhibition (INH): 61%

## CC(=O)NC1CCn2c1nc1c2CC(C)=C(N2CC2)C1=O (stereo unspecified)
L5178Y
  IC50: 4 µM
